pEC50: −log10 of the molar value.
Key:
DENV-2 16681 strain = assay: microbe, parasite or virus in culture; format: cell-based, Dengue virus; details: for pEC50: DENV-2 16681 eGFP, Vero cells, MOI 0.5, 3 days; for SI: SI=CC50/EC50, DENV-2 antiviral assay
in vitro = details: African green monkey
Vero cells = details: African green monkey
[1] = Dengue virus, DENV2, Vero, 72 h

SMILES | pEC50 (DENV-2 16681 strain; [1]) | SI (DENV-2 16681 strain) | CC50 (in vitro) [µM] | pEC50 (DENV-2 16681 strain) | CC50 (Vero cells) [µM]
COc1cc(NC(C(=O)N2CCc3ccc(OC(F)(F)F)cc32)c2ccc(Cl)cc2)cc(OCCC(C)C(=O)O)c1 (racemic) [Compound 1, 4-(3-((1-(4-chlorophenyl)-2-oxo-2-(6-(trifluoromethoxy)indolin-1-yl)ethyl)amino)-5-methoxyphenoxy)-2-methylbutanoic acid] | 9.30 | 24400 | 11 | – | –
COc1cc(NC(C(=O)N2CCc3ccc(OC(F)(F)F)cc32)c2ccc(Cl)cc2)cc(OCCC(C)(C)C(=O)O)c1 (racemic) [Compound 2, 4-(3-((1-(4-chlorophenyl)-2-oxo-2-(6-(trifluoromethoxy)indolin-1-yl)ethyl)amino)-5-methoxyphenoxy)-2,2-dimethylbutanoic acid] | 9.21 | 19200 | 12 | – | –
COc1cc(NC(C(=O)N2CCc3ccc(OC(F)(F)F)cc32)c2ccc(Cl)cc2)cc(OCCC2(C(=O)O)CC2)c1 (racemic) [Compound 3, 1-(2-(3-((1-(4-chlorophenyl)-2-oxo-2-(6-(trifluoromethoxy)indolin-1-yl)ethyl)amino)-5-methoxyphenoxy)ethyl)cyclopropane-1-carboxylic acid] | 9.30 | 17700 | 10 | – | –
COc1cc(NC(C(=O)N2CCc3ccc(OC(F)(F)F)cc32)c2ccc(Cl)cc2)cc(OCC(C)CC(=O)O)c1 (racemic) [Compound 4, 4-(3-((1-(4-chlorophenyl)-2-oxo-2-(6-(trifluoromethoxy)indolin-1-yl)ethyl)amino)-5-methoxyphenoxy)-3-methylbutanoic acid] | 9.85 | 73900 | 10 | – | –
COc1cc(NC(C(=O)N2CCc3ccc(OC(F)(F)F)cc32)c2ccc(Cl)cc2)cc(OCC2(CC(=O)O)CC2)c1 (racemic) [Compound 5, 2-(1-((3-((1-(4-chlorophenyl)-2-oxo-2-(6-(trifluoromethoxy)indolin-1-yl)ethyl)amino)-5-methoxyphenoxy)methyl)cyclopropyl)acetic acid] | 9.04 | 11300 | 9.7 | – | –
COc1cc(NC(C(=O)N2CCc3ccc(OC(F)(F)F)cc32)c2ccc(Cl)cc2)cc(OCCC(C)C(=O)O)c1 (single isomer, unassigned) [Compound 1A] | – | 523 | – | 7.74 | 9.6
COc1cc(NC(C(=O)N2CCc3ccc(OC(F)(F)F)cc32)c2ccc(Cl)cc2)cc(OCCC(C)C(=O)O)c1 (single isomer, unassigned) [Compound 1B] | – | 579 | – | 7.74 | 10
COc1cc(NC(C(=O)N2CCc3ccc(OC(F)(F)F)cc32)c2ccc(Cl)cc2)cc(OCCC(C)(C)C(=O)O)c1 (single isomer, unassigned) [Compound 2B] | – | 565 | – | 7.72 | 11
COc1cc(NC(C(=O)N2CCc3ccc(OC(F)(F)F)cc32)c2ccc(Cl)cc2)cc(OCC(C)CC(=O)O)c1 (single isomer, unassigned) [Compound 4B] | – | 935 | – | 7.96 | 10
COc1cc(NC(C(=O)N2CCc3ccc(OC(F)(F)F)cc32)c2ccc(Cl)cc2)cc(OCC2(CC(=O)O)CC2)c1 (single isomer, unassigned) [Compound 5B] | – | 921 | – | 7.96 | 10
COc1cc(CCCCC(=O)O)cc(NC(C(=O)N2CCc3ccc(OC(F)(F)F)cc32)c2ccc(Cl)cc2)c1 (single isomer, unassigned) [Compound 14B] | – | 156 | – | 7.22 | 9.3
COc1cc(NC(C(=O)N2CCc3ccc(OC(F)(F)F)cc32)c2ccc(Cl)cc2OC)cc(OCCC(C)C(=O)O)c1 (single isomer, unassigned) [Compound 17B] | – | 59 | – | 6.74 | 11
COc1cc(NC(C(=O)N2CCc3cc(OC)c(C(F)(F)F)cc32)c2ccc(Cl)cc2)cc(OCCC(C)C(=O)O)c1 (single isomer, unassigned) [Compound 20B] | – | 69 | – | 6.74 | 12
COc1cc(NC(C(=O)N2CCc3cc(F)c(OC(F)(F)F)cc32)c2ccc(Cl)cc2)cc(OCC2CC2C(=O)O)c1 (single isomer, unassigned) [Compound 26B, (1 S*,2S*)-2-((3-((1-(4-chlorophenyl)-2-(5-fluoro-6-(trifluoromethoxy)indolin-1-yl)-2-oxoethyl)amino)-5-methoxyphenoxy)methyl)-cyclopropanecarboxylic Acid] | – | 10600 | – | 9.03 | 12
COc1cc(NC(C(=O)N2CCc3cc(F)c(OC(F)(F)F)cc32)c2ccc(Cl)cc2)cc(OC2CC(C(=O)O)C2)c1 (single isomer, unassigned) [Compound 27A] | – | 14300 | – | 9.39 | 11
COc1cc(NC(C(=O)N2CCc3cc(OC)c(Cl)cc32)c2ccc(Cl)cc2)cc(OC2CC(C(=O)O)C2)c1 (single isomer, unassigned) [Compound 32A] | – | 205 | – | 7.20 | 13
COc1cc(NC2CC(C(=O)O)C2)cc(NC(C(=O)N2CCc3ccc(OC(F)(F)F)cc32)c2ccc(Cl)cc2)c1 (single isomer, unassigned) [Compound 33B] | – | 1760 | – | 8.10 | 14
COc1cc(NC(C(=O)N2CCc3ccc(OC(F)(F)F)cc32)c2ccc(Cl)cc2)cc(OCC2CC2C(=O)O)c1 (stereo not drawn) [Compound 6BA] | – | 703 | – | 7.92 | 8.7

SMILES | pEC50 (DENV-2 16681 strain; [1]) | SI (DENV-2 16681 strain) | CC50 (in vitro) [µM] | pEC50 (DENV-2 16681 strain) | CC50 (Vero cells) [µM]
COc1cc(NC(C(=O)N2CCc3ccc(OC(F)(F)F)cc32)c2ccc(Cl)cc2)cc(OC2CC(C(=O)O)C2)c1 (stereo not drawn) [Compound 7A] | – | 1130 | – | 8.04 | 10
COc1cc(NC(C(=O)N2CCc3ccc(OC(F)(F)F)cc32)c2ccc(Cl)cc2)cc(OC2CC(C(=O)O)C2)c1 (stereo not drawn) [Compound 8, (1s,3s)-3-(3-((1-(4-chlorophenyl)-2-oxo-2-(6-(trifluoromethoxy)indolin-1-yl)ethyl)amino)-5-methoxyphenoxy)cyclobutanecarboxylic acid] | – | >126733 | – | 10.32 | 13
COc1cc(NC(C(=O)N2CCc3ccc(OC(F)(F)F)cc32)c2ccc(Cl)cc2)cc(OC2CC(C(=O)O)C2)c1 (stereo not drawn) [Compound 8A] | – | 11600 | – | 9.07 | 12
COc1cc(NC(C(=O)N2CCc3ccc(OC(F)(F)F)cc32)c2ccc(Cl)cc2)cc(OCC2CC(C(=O)O)C2)c1 (stereo not drawn) [Compound 10A] | – | 3790 | – | 8.57 | 10
COc1cc(NC(C(=O)N2CCc3ccc(OC(F)(F)F)cc32)c2ccc(Cl)cc2)cc(OCC2CC(C(=O)O)C2)c1 (stereo not drawn) [Compound 11, (1r,3r)-3-((3-((1-(4-chlorophenyl)-2-oxo-2-(6-(trifluoromethoxy)indolin-1-yl)ethyl)amino)-5-methoxyphenoxy)methyl)cyclobutanecarboxylic acid] | – | 97100 | – | 9.89 | 12
COc1cc(NC(C(=O)N2CCc3ccc(OC(F)(F)F)cc32)c2ccc(Cl)cc2)cc(OCC2CC(C(=O)O)C2)c1 (stereo not drawn) [Compound 11A] | – | 2710 | – | 8.42 | 10
COc1cc(NC(C(=O)N2CCc3ccc(OC(F)(F)F)cc32)c2ccc(Cl)cc2OC)cc(OCC2CC2C(=O)O)c1 (stereo not drawn) [Compound 19BA] | – | 707 | – | 7.80 | 11
COc1cc(NC(C(=O)N2CCc3cc(OC)c(C(F)(F)F)cc32)c2ccc(Cl)cc2)cc(OCC2CC2C(=O)O)c1 (stereo not drawn) [Compound 22BA] | – | 786 | – | 7.82 | 12
COc1cc(NC(C(=O)N2CCc3cc(OC)c(C(F)(F)F)cc32)c2ccc(Cl)cc2)cc(OCC2CC(C(=O)O)C2)c1 (stereo not drawn) [Compound 24A] | – | 469 | – | 7.62 | 11
COc1cc(NC(C(=O)N2CCc3cc(OC)c(C(F)(F)F)cc32)c2ccc(Cl)cc2)cc(OCC2CC(C(=O)O)C2)c1 (stereo not drawn) [Compound 25, (1r,3r)-3-((3-((1-(4-chlorophenyl)-2-(5-methoxy-6-(trifluoromethyl)indolin-1-yl)-2-oxoethyl)amino)-5-methoxyphenoxy)methyl)-cyclobutanecarboxylic Acid] | – | 26800 | – | 9.35 | 12
COc1cc(NC(C(=O)N2CCc3cc(OC)c(C(F)(F)F)cc32)c2ccc(Cl)cc2)cc(OCC2CC(C(=O)O)C2)c1 (stereo not drawn) [Compound 25A] | – | 1640 | – | 8.15 | 12
COc1cc(NC(C(=O)N2CCc3ccc(OC(F)(F)F)cc32)c2ccc(Cl)cc2)cc(OCC2(F)CC2C(=O)O)c1 (stereo not drawn) [Compound 28AA] | – | 34 | – | 6.48 | 11
COc1cc(NC(C(=O)N2CCc3ccc(OC(F)(F)F)cc32)c2ccc(Cl)cc2)cc(OCC2(F)CC2C(=O)O)c1 (stereo not drawn) [Compound 28BA] | – | 574 | – | 7.77 | 10
COc1cc(NC(C(=O)N2CCc3ccc(OC(F)(F)F)cc32)c2ccc(Cl)cc2)cc(OCC2(F)CC2C(=O)O)c1 (stereo not drawn) [Compound 29AA] | – | 151 | – | 7.21 | 9.2
COc1cc(NC(C(=O)N2CCc3ccc(OC(F)(F)F)cc32)c2ccc(Cl)cc2)cc(OCC2(F)CC2C(=O)O)c1 (stereo not drawn) [Compound 29BA] | – | 2890 | – | 8.47 | 9.8
COc1cc(NC(C(=O)N2CCc3cc(F)c(OC(F)(F)F)cc32)c2ccc(Cl)cc2)cc(OCC2CC(C(=O)O)C2)c1 (stereo not drawn) [Compound 30B] | – | 1800 | – | 8.23 | 11
COc1cc(NC(C(=O)N2CCc3cc(F)c(OC(F)(F)F)cc32)c2ccc(Cl)cc2)cc(OCC2CC(C(=O)O)C2)c1 (stereo not drawn) [Compound 31B] | – | 4400 | – | 8.59 | 12

From US11407715B2, “Substituted indoline derivatives as dengue viral replication inhibitors” (JANSSEN PHARMACEUTICALS, INC., priority 2017, dated 2022)
